Measurements reported in patent publication US10654896B2, “FoxP3-binding peptides and uses thereof” (FUNDACIÓN PARA LA INVESTIGACIÓN MÉDICA APLICADA, priority 2016, dated 2020).
Where a SMILES comes first, the peptide text is derived from it. [ ]: non-standard residue; d: D form.

Experiments:
human FOXP3 (FOXP3-6His) = target: T1, human FOXP3 (FOXP3-6His) (Homo sapiens, UniProt Q9BZS1); assay: Peptide binding to FOXP3 by surface plasmon resonance (SPR); conditions: peptides 1-20 μM; ratio to p60 (SEQ ID NO: 1)
T1 construct: 6xHis (C); made in house; host or cells: E. coli BL21 (DE3)
T1 sequence (Q9BZS1 1-431): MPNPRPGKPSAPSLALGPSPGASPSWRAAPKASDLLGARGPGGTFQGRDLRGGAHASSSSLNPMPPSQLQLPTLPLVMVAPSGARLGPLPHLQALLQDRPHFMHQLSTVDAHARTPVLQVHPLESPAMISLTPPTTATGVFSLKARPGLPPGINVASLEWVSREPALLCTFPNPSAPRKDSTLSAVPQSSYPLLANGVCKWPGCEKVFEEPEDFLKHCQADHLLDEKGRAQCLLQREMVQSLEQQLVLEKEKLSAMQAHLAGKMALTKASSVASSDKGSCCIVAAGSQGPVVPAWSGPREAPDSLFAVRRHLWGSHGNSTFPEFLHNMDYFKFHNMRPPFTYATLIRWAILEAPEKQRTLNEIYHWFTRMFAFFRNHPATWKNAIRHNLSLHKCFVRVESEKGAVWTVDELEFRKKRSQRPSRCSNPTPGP
How it was run: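 C-terminally 6His-tagged human FOXP3, expressed in E. coli BL21(DE3) and Ni-affinity purified, was amine-coupled to a GLM chip (ProteOn XPR36). Peptides at 1–20 μM injected in triplicate in PBS, 0.005% Tween 20, pH 7.4, at 30 μl/min, with interspot reference. Binding given as ratio to reference peptide p60.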

[1] = target: T2, FOXP3/Runx1 heterodimerization (Homo sapiens, UniProt Q9BZS1); assay: FOXP3/Runx1 heterodimerization inhibition (Alphascreen); assay type: biochemical; conditions: for inhibition at 2.5 µM: read-out: Foxp3-Runx1 Inhibition % inhibition (2.5 μM)
T2 construct: made in house; host or cells: E. coli BL21 (DE3)
T2 sequence (Q9BZS1 1-431): T1 sequence (Q9BZS1 1-431)
From the text: Plasmid pET20b FOXP3-His was generated to produce the human FOXP3 tagged with 6 histidines at the C terminus of the protein. Briefly, plasmid pDEST15-FOXP3 (provided by Dr. Casal, Madrid, Spain) was used as template to amplify FOXP3 by PCR using the primers Upper FOXP3 Ndel catatgcccaaccccaggc (SEQ ID NO: 55) and Lower FOXP3 […] (SEQ ID NO: 56). The resulting fragment was subcloned in pET20b at Ndel and NotI sites. pET45b His-Runx1 was obtained by PCR of activated human CD4 T cells obtained from healthy volunteers (after the signature of an informed consent) using the primers Upper Runx1 atgcgtatccccgtagatg (SEQ ID NO: 57) and Lower Runx1 […] (SEQ ID NO: 58) and the fragment was cloned in pcDNA3.1. Then, pET45b and pcDNA3.1-Runx1 were digested with BamHI and NotI and ligated to obtain pET45b-Runx1. Plasmids were used to transform BL21 cells (DE3; Novagen, Schwalbach, Germany) for the expression of the recombinant protein. The transformed BL21 cells were grown in LB medium at 37° C. (1 liter of final culture medium) (with ampicilin 0.1 mg/ml). Once the OD of the culture was between 0.5 and 1.0, IPTG (0.4 mM, final concentration) was added. Bacteria were then cultured overnight in agitation and centrifuged for 10 min at 8000 rpm. Cell pellet was then resuspended in 4 ml Tris-HCl 0.1 M and frozen at −80° C. Cell pellet was then thawed and incubated with lisozyme (25 KU) and a protease inhibitor cocktail for 15 min at 30° C. before cell lysis induced with a French-press. The resultant pool was then centrifuged during 20 min at 11.000 rpm). The recombinant protein was purified from the soluble fraction of French-press cell extracts by affinity chromatography (Histrap, Pharmacia) following manufacturer's instructions and using an FPLC platform (AKTA, Pharmacia). Plasmid pDEST15-FOXP3 encoding the fusion protein GST-FOXP3 (GST fused to the isoform A from human FOXP3 gene), was transformed into BL21 cells for the expression of the recombinant protein. GST-FOXP3 protein was purified from the soluble fraction of cell extracts obtained, as described above, by affinity chromatography (GSTrap; Amersham, Piscataway, N.J.) using a fast protein liquid chromatography platform (AKTA; Amersham) following manufacturer's instructions. The eluted proteins were desalted using Hitrap desalting columns (Pharmacia) and analyzed by SDS-PAGE using Coomassie blue (Bio-Safe Coomassie reagent; Bio-Rad, Hercules, Calif.) and by Western blot.
It has been described that dimerization of FOXP3 is required for its function as a transcriptional regulator. Moreover, interaction between FOXP3 and the transcription factor Runx1, is crucially required for normal hematopoiesis including thymic T-cell development, but also for Treg suppressor activity (Reviewed in Lozano et al, Front Oncol. 2013, 3:294). Both activities are mediated by the intermediate region of Foxp3, which is the area of interaction between P60 and Foxp3. Thus, we studied the effect of P60 and their mutants on the FOXP3/Runx1 heterodimerization, as well as FOXP3/FOXP3 homodimerization by Alphascreen technology according to the manufacturer's instructions (Perkin Elmer, Benelux). AlphaScreen™ is a bead-based technology that is designed to measure the proximity of donor and acceptor beads conjugated to biomolecules of interest.
To measure Foxp3-Runx1 interactions, Foxp3-GST and […] proteins were used.
Recombinant Runx1 expressed in E. Coli with a hexa-histidine tag (obtained as disclosed in section (1) above) was captured by nickel chelate acceptor beads following manufacturer's instructions, whereas the recombinant FOXP3 expressed with a GST tag was captured by glutathione donor beads (Perkin Elmer) following manufacturer's instructions. His-tagged Runx1 (46 nM final concentration) was incubated with 100 nM GST-FOXP3 and the peptides to be tested (added at different concentrations from 1 to 100 μM) for 1 h at room temperature. […]

| Molecule | Binding to Foxp3 Ratio binding Peptide/p60 (fold change) (human FOXP3 (FOXP3-6His)) | inhibition at 2.5 µM [1] | inhibition at 100 µM ([1]; read-out: Foxp3-Runx1 Inhibition % inhibition (100 μM)) |
| --- | --- | --- | --- |
| CSCC[C@H](NC(=O)[C@H](C)NC(=O)[C@H](Cc1ccccc1)NC(=O)[C@H](Cc1ccccc1)NC(=O)[C@@H]1CCCN1C(=O)[C@H](Cc1c[nH]c2ccccc12)NC(=O)[C@H](CCSC)NC(=O)[C@H](CCCCN)NC(=O)[C@H](CCCNC(=N)N)NC(=O)[C@H](Cc1ccccc1)NC(=O)[C@H](CO)NC(=O)[C@H](CCC(N)=O)NC(=O)[C@H](Cc1ccccc1)NC(=O)[C@@H](CC(=O)O)NC(=O)[C@@H](N)CCCNC(=N)N)C(=O)O [compound 3] (H-R[dD]FQSFRKMWPFFAM-OH) | 2.8 fold change | – | – |
| CSCC[C@H](NC(=O)[C@H](C)NC(=O)[C@H](Cc1ccccc1)NC(=O)[C@H](Cc1ccccc1)NC(=O)[C@@H]1CCCN1C(=O)[C@H](Cc1c[nH]c2ccccc12)NC(=O)[C@H](CCSC)NC(=O)[C@H](CCCCN)NC(=O)[C@H](CCCNC(=N)N)NC(=O)[C@H](Cc1ccccc1)NC(=O)[C@H](CO)NC(=O)[C@H](CCC(N)=O)NC(=O)[C@H](Cc1ccccc1)NC(=O)[C@H](C)NC(=O)[C@H](N)CCCNC(=N)N)C(=O)O [compound 46] (H-[dR]AFQSFRKMWPFFAM-OH; N-terminus and C-terminus assumed) | 2.7 fold change | 95% | – |
| CSCC[C@H](NC(=O)[C@H](CCCCN)NC(=O)[C@H](CCCNC(=N)N)NC(=O)[C@H](Cc1ccccc1)NC(=O)[C@H](CO)NC(=O)[C@H](CCC(N)=O)NC(=O)[C@H](Cc1ccccc1)NC(=O)[C@H](C)NC(=O)[C@@H](N)CCCNC(=N)N)C(=O)N[C@@H](Cc1c[nH]c2ccccc12)C(=O)N1CCC[C@H]1C(=O)N[C@@H](Cc1ccccc1)C(=O)N[C@@H](Cc1ccccc1)C(=O)N[C@@H](C)C(=O)N[C@H](CCSC)C(=O)O [compound 47] (H-RAFQSFRKMWPFFA[dM]-OH; N-terminus and C-terminus assumed) | 1.7 fold change | 75% | – |
| CSCC[C@H](NC(=O)[C@H](CCCCN)NC(=O)[C@H](CCCNC(=N)N)NC(=O)[C@H](Cc1ccccc1)NC(=O)[C@H](CO)NC(=O)[C@H](CCC(N)=O)NC(=O)[C@H](Cc1ccccc1)NC(=O)[C@H](C)NC(=O)[C@H](N)CCCNC(=N)N)C(=O)N[C@@H](Cc1c[nH]c2ccccc12)C(=O)N1CCC[C@H]1C(=O)N[C@@H](Cc1ccccc1)C(=O)N[C@@H](Cc1ccccc1)C(=O)N[C@@H](C)C(=O)N[C@H](CCSC)C(=O)O [compound 48] (H-[dR]AFQSFRKMWPFFA[dM]-OH; N-terminus and C-terminus assumed) | 2.5 fold change | 70% | – |
| CSCC[C@@H]1NC(=O)[C@H](C)NC(=O)[C@H](Cc2ccccc2)NC(=O)[C@H](Cc2ccccc2)NC(=O)[C@@H]2CCCN2C(=O)[C@H](Cc2c[nH]c3ccccc23)NC(=O)[C@H](CCSC)NC(=O)[C@H](CCCCN)NC(=O)[C@H](CCCNC(=N)N)NC(=O)[C@H](Cc2ccccc2)NC(=O)[C@H](C)NC(=O)[C@H](CCC(N)=O)NC(=O)[C@H](Cc2ccccc2)NC(=O)[C@H](C)NC(=O)[C@H](CCCNC(=N)N)NC1=O [compound 50] (cyclo(RAFQAFRKMWPFFAM)) | – | 60% | – |
| H-RDFQSFRKMWPFFAM-OH [compound 1] | 1.0 fold change | – | 54.5% |
